According to patent publication US20250297998A1, “SYSTEM AND METHODS FOR MEASURING AIRBORNE GLYCOL” (Grignard Pure LLC, priority 2022, published 2025):

Tests used:
[1] = Visual appearance and odor; type: physicochemical
Text: (§1) As a non-limiting example, the sanitizing formulation can include 52.25% TEG by weight, 1.00% PG by weight, and 46.75% water (e.g., deionized water) by weight. The properties of this particular example of the sanitizing formulation (and pure TEG as a comparative reference) is summarized in the table below

PLTL-15 Odor Test = type: physicochemical
Text: as §1

[2] = ASTM D4052 specific gravity; type: physicochemical
Text: as §1

ASTM D1120 boiling point = type: physicochemical
Text: as §1

ASTM D93 flash point = type: physicochemical
Text: as §1

ASTM D323 vapor pressure = type: physicochemical; conditions: @ 20° C.
Text: as §1

[3] = ASTM D445 kinematic viscosity; type: physicochemical
Text: as §1

ASTM D117 freeze point = type: physicochemical
Text: as §1

[4] = cited from earlier work

OCCOCCOCCO [Pure TEG, triethylene glycol]
Appearance and Odor [1]: Clear/Uniform
Odor Test (PLTL-15 Odor Test): No Odor
Specific Gravity @ 20° C. [2]: 1.12-1.13
Boiling Point (° C.) (ASTM D1120 boiling point): 285° ° C.
Flash Point (° C.) (ASTM D93 flash point): 157° ° C.
Vapor Pressure (psi) (ASTM D323 vapor pressure): 0.0 psi @ 20 °C
Viscosity, Kinematic @ 40° C. [3]: 42.3 cSt
Freeze Point ° C. (ASTM D117 freeze point): −7.0° ° C.
flash point ([4]; TEG alone, flammable liquid): 157 °C
boiling point ([4]; at a pressure of 101.325 kPa): 286.5 °C
